Measurements published in article PMC3532212 (PLoS ONE, 2012).
Blank lines part the entries; values can stand above or below the compound they belong to.

Legend:
anesthetized rats = assay: Anesthetized rat cardiovascular study (mean arterial pressure, heart rate); type: in vivo; conditions: for effect on heart rate of acute i.v. infusion: anesthetized rats, FTY720 0.1, 0.3, 1.0 mg/kg/20 min or BAF312 0.5, 1.5, 5.0 mg/kg/20 min; for heart rate, change below baseline / mean arterial pressure, change below baseline: FTY720 i.v.
Method: The cardiovascular effects of FTY720 and BAF312 were tested in anesthetized rats (180–200 g). In brief, male Sprague Dawley rats (Charles River) were anesthetized with Inactin (110 mg/kg i.p.) and a tracheotomy performed. The femoral artery and veins were catheterized for measurement of mean arterial pressure and heart rate, collection of blood samples at 20-min intervals (0.2 mL/sample), and for compound infusion/hydration as previously described, [24]; blood samples were also withdrawn in vehicle-treated control rats. FTY720, infused as a hydrochloride salt (0.1, 0.3, 1.0 mg/kg/20-min free base equivalent solubilized in a 100% PEG-400 vehicle), or BAF312 (0.5, 1.5, 5.0 mg/kg/20-min solubilized in a 100% PEG-400 vehicle) were administered via three escalating 20-min infusions (0.011 mL/min) followed by a 1-hr post-treatment period. A blood sample was withdrawn at 20, 40, 60, and 120-minutes for analysis of plasma concentrations of the parent compound, and in the case of FTY720, also the phosphorylated metabolite, (S)-FTY720-P. Statistical significance (p<0.05) was based on a t-test comparing treatment change from baseline (baseline was defined as the period from −30 to 0 minutes) vs. vehicle controls change from baseline at each timepoint without adjustment for multiple comparisons. In a separate group of anesthetized rats in which left ventricular (LV) contractility was also recorded with a Millar pressure transducer introduced into the left ventricle, BAF312 was infused in the same dosing regimen as the studies described above (0.5, 1.5, 5.0 mg/kg/20-min solubilized in a 100% PEG-400 vehicle) and effects on LV dP/dtmax were recorded.

human S1P4 = molecular target: T1, human S1P4 (Homo sapiens, UniProt O95977); assay: B arrestin recruitment assay, Tango EDG6-bla U2OS cells; type: cell-based; conditions: for EC50: B arrestin, 18 hours agonist incubation
T1 construct: host or cells: U2OS (Tango EDG6-bla)
T1 sequence (O95977 1-384): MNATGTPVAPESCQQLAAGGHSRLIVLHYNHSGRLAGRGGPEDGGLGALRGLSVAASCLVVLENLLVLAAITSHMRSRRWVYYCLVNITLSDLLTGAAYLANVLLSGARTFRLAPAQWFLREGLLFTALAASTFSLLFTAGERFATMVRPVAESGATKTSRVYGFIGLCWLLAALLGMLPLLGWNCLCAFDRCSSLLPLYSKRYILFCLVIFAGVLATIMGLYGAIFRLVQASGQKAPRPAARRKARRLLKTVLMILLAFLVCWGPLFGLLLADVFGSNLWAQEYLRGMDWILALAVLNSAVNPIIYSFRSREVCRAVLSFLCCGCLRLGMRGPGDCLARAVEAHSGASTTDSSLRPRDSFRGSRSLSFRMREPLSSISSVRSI
Method: Tango™ EDG1-bla U2OS cells (Human S1P1), Tango™ EDG3-bla U2OS cells (human S1P3), Tango™ EDG6-bla U2OS cells (human S1P4) and Tango™ EDG8-bla U2OS cells (human S1P5) cell lines were cultured and assayed according to manufacturers instructions with one modification; agonists incubated on the cells for 18 hours prior to addition of the GenBlazer substrate. Final DMSO concentration in the assay is 1%.

[1] = test system: mouse and rat experimental autoimmune encephalitis, EAE; parameters: method as in PMID 23436932; conditions: correlated with reduced circulating lymphocytes and monocytes; cited from earlier work
[2] = Plasma concentrations after a single oral dose in rats; type: in vivo; conditions: rat; for concentration at 4 hr / concentration at 8 h / concentration at 24 h / concentration at 48 h / concentration at 72 h: male, Sprague Dawley, plasma; for concentration at 4 hr / concentration at 8 h / concentration at 24 h / concentration at 48 h / concentration at 72 h / Plasma concentration: mean±SEM; for time post-dose through which plasma values were detectable: FTY720 single oral dose
Method: Mean arterial pressure was assessed in conscious, freely moving male Sprague Dawley rats (n = 6–8/group; Charles River) instrumented with telemetry transmitters (DSI-Ponemah) and housed in metabolism cages as previously described, [26]. Tested compounds were solubilized in a 0.5% Methylcellulose/0.015% Tween 80 vehicle that was also dosed alone (p.o./QD, 5 mL/kg) as a control in the study. FTY720 was administered p.o. at 0.3, 1.0, 3.0, 10.0 mg/kg p.o. as a single dose or p.o./QD at 0.5, 1.5, and 5.0 mg/kg in a chronic study. BAF312 was administered p.o/QD at 0.3, 3.0, and 30 mg/kg as a single dose and in a chronic study. Mean arterial pressure and heart rate are shown as 1-hr and/or 24-hr mean values±SEM as described in the results. Blood samples in satellite rats were withdrawn at various timepoints as described in the results for analysis of plasma concentrations of the parent compound and, in the case of FTY720, also the phosphorylated metabolite, (S)-FTY720-P. Statistical analysis for the single-dose acute studies was based on one-way ANOVA to compare the treatment groups vs. vehicle for each time period after dosing (0–24 hrs, 24–48 hrs, and 48–72 hrs); statistical significance (p<0.05) was detected by Dunnett’s post-hoc test to compare treatment with vehicle controls. The statistical analysis in the chronic studies were based on one-way ANOVA with repeated measures to compare the treatment arms; statistical significance (p<0.05) was detected by Dunnett’s post-hoc test to compare treatment with vehicle controls.

[3] = Heart tissue concentrations at the end of the repeat-dosing study; type: in vivo; conditions: rat
Method: In the repeat-dosing study with FTY720 (0.5, 1.5, and 5.0 mg/kg/d), plasma concentrations were also determined ( Table 3 ).

[4] = FTY720 0.3 mg/kg single oral dose, 4 hr post-dose
[5] = FTY720 0.3 mg/kg single oral dose, 8 hr post-dose
[6] = FTY720 0.3 mg/kg single oral dose, 24 hr post-dose
[7] = FTY720 0.3 mg/kg single oral dose, 48 hr post-dose
[8] = FTY720 0.3 mg/kg single oral dose, 72 hr post-dose
[9] = FTY720 1.0 mg/kg single oral dose, 4 hr post-dose
[10] = FTY720 1.0 mg/kg single oral dose, 8 hr post-dose
[11] = FTY720 1.0 mg/kg single oral dose, 24 hr post-dose
[12] = FTY720 1.0 mg/kg single oral dose, 48 hr post-dose
[13] = FTY720 1.0 mg/kg single oral dose, 72 hr post-dose
[14] = FTY720 3.0 mg/kg single oral dose, 4 hr post-dose
[15] = FTY720 3.0 mg/kg single oral dose, 8 hr post-dose
[16] = FTY720 3.0 mg/kg single oral dose, 24 hr post-dose
[17] = FTY720 3.0 mg/kg single oral dose, 48 hr post-dose
[18] = FTY720 3.0 mg/kg single oral dose, 72 hr post-dose
[19] = FTY720 10.0 mg/kg single oral dose, 4 hr post-dose
[20] = FTY720 10.0 mg/kg single oral dose, 8 hr post-dose
[21] = FTY720 10.0 mg/kg single oral dose, 24 hr post-dose
[22] = FTY720 10.0 mg/kg single oral dose, 48 hr post-dose
[23] = FTY720 10.0 mg/kg single oral dose, 72 hr post-dose
[24] = FTY720 0.3 mg/kg single oral dose
[25] = FTY720 1.0 mg/kg single oral dose
[26] = FTY720 3.0 mg/kg single oral dose
[27] = FTY720 10 mg/kg single oral dose
[28] = anesthetized rat, end of 0.1 mg/kg/20 min infusion
[29] = anesthetized rat, end of 0.3 mg/kg/20 min infusion
[30] = anesthetized rat, end of 1.0 mg/kg/20 min infusion

selectivity over S1P4 (human S1P4; B arrestin EC50s): 100 fold
EC50 (human S1P4): 245 nM
SMILES: CCc1cc(/C(C)=N/OCc2ccc(C3CCCCC3)c(C(F)(F)F)c2)ccc1CN1CC(C(=O)O)C1 [BAF312]
effect on mean arterial pressure (anesthetized rats; anesthetized rat, BAF312 0.5, 1.5, 5.0 mg/kg/20-min i.v.): no effect
time heart rate remained statistically reduced (anesthetized rats; anesthetized rat, BAF312 i.v. infusion): 30 min
heart rate, change from baseline (anesthetized rats; anesthetized rat, BAF312 i.v., 10-min into the first infusion period (0.5 mg/kg/20 min), vehicle −6±4): −51±8 beats/min
heart rate vs vehicle (anesthetized rats; anesthetized rat, BAF312 i.v., latter half of the 60-min infusion): not different from vehicle controls
effect on heart rate of acute i.v. infusion (anesthetized rats): acute bradycardia
efficacious dose in EAE [1]: 0.3 mg/kg

concentration at 4 hr [2, 4]: 10 ± 5 nM
concentration at 8 h [2, 5]: 14 ± 5 nM
concentration at 24 h [2, 6]: 15 ± 3 nM
concentration at 48 h [2, 7]: 13 ± 1 nM
concentration at 72 h [2, 8]: 7 ± 2 nM
concentration at 4 hr [2, 9]: 25 ± 3 nM
concentration at 8 h [2, 10]: 36 ± 5 nM
concentration at 24 h [2, 11]: 22 ± 2 nM
concentration at 48 h [2, 12]: 12 ± 1 nM
concentration at 72 h [2, 13]: 10 ± 1 nM
concentration at 4 hr [2, 14]: 62 ± 4 nM
concentration at 8 h [2, 15]: 79 ± 17 nM
concentration at 24 h [2, 16]: 91 ± 19 nM
concentration at 48 h [2, 17]: 53 ± 15 nM
concentration at 72 h [2, 18]: 34 ± 4 nM
concentration at 4 hr [2, 19]: 146 ± 18 nM
concentration at 8 h [2, 20]: 274 ± 46 nM
concentration at 24 h [2, 21]: 301 ± 31 nM
concentration at 48 h [2, 22]: 143 ± 16 nM
concentration at 72 h [2, 23]: 101 ± 21 nM
Plasma concentration at Tmax [2, 24]: 15 ± 3 nM
Plasma concentration at Tmax [2, 25]: 36 ± 5 nM
Plasma concentration at Tmax [2, 26]: 91 ± 19 nM
Plasma concentration at Tmax [2, 27]: 301 ± 31 nM
time post-dose through which plasma values were detectable [2]: at least 72 hrs
mean tissue concentration in heart ([3]; FTY720 0.5 mg/kg/d p.o.): 379 ng/g
mean tissue concentration in heart ([3]; FTY720 1.5 mg/kg/d p.o.): 490 ng/g
mean tissue concentration in heart ([3]; FTY720 5.0 mg/kg/d p.o.): 1848 ng/g
SMILES: CCCCCCCCc1ccc(CCC(N)(CO)CO)cc1 [FTY720]
heart rate, change below baseline (anesthetized rats; [28]): −71±26 beats/min
mean arterial pressure, change below baseline (anesthetized rats; [28]): −9±3 mmHg
heart rate, change below baseline (anesthetized rats; [29]): −139±37 beats/min
mean arterial pressure, change below baseline (anesthetized rats; [29]): −22±4 mmHg
heart rate, change below baseline (anesthetized rats; [30]): −173±26 beats/min
mean arterial pressure, change below baseline (anesthetized rats; [30]): −24±4 mmHg
effect on heart rate of acute i.v. infusion (anesthetized rats): acute bradycardia
efficacious dose in EAE [1]: 0.3 mg/kg

Plasma concentration at Tmax [2, 24]: 83 ± 3 nM
Plasma concentration [2, 4]: 66 ± 3 nM
Plasma concentration [2, 5]: 83 ± 3 nM
Plasma concentration [2, 6]: 43 ± 7 nM
Plasma concentration [2, 7]: 29 ± 3 nM
Plasma concentration [2, 8]: 4 ± 4 nM
Plasma concentration at Tmax [2, 25]: 263 ± 13 nM
Plasma concentration [2, 9]: 172 ± 16 nM
Plasma concentration [2, 10]: 263 ± 13 nM
Plasma concentration [2, 11]: 113 ± 2 nM
Plasma concentration [2, 12]: 81 ± 11 nM
Plasma concentration [2, 13]: 26 ± 4 nM
Plasma concentration at Tmax [2, 26]: 360 ± 55 nM
Plasma concentration [2, 14]: 285 ± 29 nM
Plasma concentration [2, 15]: 339 ± 36 nM
Plasma concentration [2, 16]: 360 ± 55 nM
Plasma concentration [2, 17]: 152 ± 14 nM
Plasma concentration [2, 18]: 165 ± 2 nM
Plasma concentration at Tmax [2, 27]: 1090 ± 124 nM
Plasma concentration [2, 19]: 559 ± 159 nM
Plasma concentration [2, 20]: 1145 ± 505 nM
Plasma concentration [2, 21]: 1090 ± 124 nM
Plasma concentration [2, 22]: 455 ± 57 nM
Plasma concentration [2, 23]: 629 ± 157 nM
time post-dose through which plasma values were detectable [2]: at least 72 hrs
EC50 (human S1P4): 26 nM
mean tissue concentration in heart ([3]; FTY720 0.5 mg/kg/d p.o.): 513 ng/g
mean tissue concentration in heart ([3]; FTY720 1.5 mg/kg/d p.o.): 757 ng/g
mean tissue concentration in heart ([3]; FTY720 5.0 mg/kg/d p.o.): 3799 ng/g
SMILES: CCCCCCCCc1ccc(CC[C@](N)(CO)COP(=O)(O)O)cc1 [FTY720-P]
